In patent publication US20250066370A1, “BICYCLIC TRIAZINE DERIVATIVES FOR THE TREATMENT OF CANCER” (DEUTSCHES KREBSFORSCHUNGSZENTRUM, priority 2022, published 2025):
Each block holds one compound with its values, some of them ahead of it.

Assays:
[1] = system: CAL-120-CDK12d-res; assay: Proliferation assay CDK12 degrader resistant CAL-120; type: cell-based, human; conditions: for IC50: Homo sapiens, 96 h, CDK12 degrader resistant CAL-120 cells, 4 days, median, read-out: Prolif-CAL-120-CDK12d-res, IC50 - [mol/l] (median); for Ratio (Prolif-CAL-120-CDK12d-res IC50 / Prolif-CAL-120 IC50): resistant versus parental CAL-120 cells
Source text: CDK12-degrader resistant cells were generated by propagation of CAL-120 human breast adenocarcinoma cells (DSMZ ACC-459) and MDA-MB-231 human breast cancer cells (ATCC HTB-26) in presence of increasing concentrations of the CDK12 degrader compound example 4 from WO 2021/116178. Initial concentrations of example 4 were 2.0E-08 M for CAL-120 cells and 4.6E-08 M for MDA-MB-231 cells, corresponding to ca. 2-fold the IC50 of inhibition of the cells in an proliferation assay. After the treated cells recovered and proliferated again the concentration of compound example 4 was increased to 3-fold IC50.
To determine the inhibitory effect of test compounds on proliferation of CAL-120-CDK12d-res, MDA-MB-231-CDK12d-res the cells were plated at a density of 4,000 cells/well in a 96-well multitier plate in 200 microL of their respective growth medium supplemented 10% fetal calf serum. After 24 hours, the cells of one plate (zero-point plate) were stained with crystal violet (see below), while the medium of the other plates was supplemented with the test substances in various concentrations (0 micromol/L, as well as in the range of 0.01-10 micromol/L; the final concentration of the solvent dimethyl sulfoxide was adjusted to 0.1%) using a Tecan HP D300 Digital Dispenser. The cells were incubated for 4 days in the presence of test substances. Cell proliferation was determined by staining the cells with crystal violet: the cells were fixed by adding 20 microL/measuring point of an 11% glutaric aldehyde solution for 15 minutes at room temperature. After three washing cycles of the fixed cells with water, the plates were dried at room temperature. The cells were stained by adding 100 microL/measuring point of a 0.1% crystal violet solution (pH 3.0). After three washing cycles of the stained cells with water, the plates were dried at room temperature. The dye was dissolved by adding 100 microL/measuring point of a 10% acetic acid solution. The extinction was determined by photometry at a wavelength of 595 nm. The change of cell number, in percent, was calculated by normalization of the measured values to the extinction values of the zero-point plate (=0%) and the extinction of the untreated (0 μM) cells (=100%). The IC50 values (inhibitory concentration at 50% of maximal effect) were determined by means of a 4 parameter fit.

[2] = system: AU565; assay: Proliferation assay: cell line panel, AU565; type: cell-based; conditions: Homo sapiens, 96 h, breast cancer, HER2 positive, 4 days, read-out: Result Category, IC50 (mean)
Source text: (§1) Human tumour cells were originally obtained from the American Type Culture Collection (ATCC), from Cell Line Services GmbH (CLS), from the Deutsche Sammlung von Mikroorganismen und Zellkulturen (DSMZ, German Collection of Microorganisms and Cell Cultures), from the Japanese Cancer Research Resources Bank (JCRB), from Public Health England, from the European Collection of Authenticated Cell Cultures (ECACC), from Asterand Biosciences, or from the National Cancer Institute (NCI). Cultivated tumour cells were plated at the density as indicated in Table 6 in 96-well multitier plates in 200 microL of their respective growth medium supplemented 10% fetal calf serum. […] Cell proliferation was determined by staining the cells with crystal violet: the cells were fixed by adding 20 microL/measuring point of an 11% glutaric aldehyde solution for 15 minutes at room temperature. […] The extinction was determined by photometry at a wavelength of 595 nm. The change of cell number, in percent, was calculated by normalization of the measured values to the extinction values of the zero-point plate (=0%) and the extinction of the untreated (0 μM) cells (=100%). […]

[3] = system: BT474; assay: Proliferation assay: cell line panel, BT474; type: cell-based; conditions: Homo sapiens, BT-474, 96 h, breast cancer, HER2 positive, 4 days, read-out: Result Category, IC50 (mean)
Source text: as §1

[4] = system: EFM192A; assay: Proliferation assay: cell line panel, EFM192A; type: cell-based; conditions: Homo sapiens, EFM-192A, 96 h, breast cancer, HER2 positive, 4 days, read-out: Result Category, IC50 (mean)
Source text: as §1

[5] = system: HCC1419; assay: Proliferation assay: cell line panel, HCC1419; type: cell-based; conditions: Homo sapiens, 96 h, breast cancer, HER2 positive, 4 days, read-out: Result Category, IC50 (mean)
Source text: as §1

[6] = system: CAL-120; assay: Proliferation assay: cell line panel, CAL-120; type: cell-based; conditions: Homo sapiens, 96 h, breast cancer, triple-negative, 4 days, read-out: Result Category, IC50 (mean)
Source text: as §1

[7] = system: HCC1143; assay: Proliferation assay: cell line panel, HCC1143; type: cell-based; conditions: Homo sapiens, 96 h, breast cancer, triple-negative, 4 days, read-out: Result Category, IC50 (mean)
Source text: as §1

[8] = system: HCC1806; assay: Proliferation assay: cell line panel, HCC1806; type: cell-based; conditions: Homo sapiens, 96 h, breast cancer, triple-negative, 4 days, read-out: Result Category, IC50 (mean)
Source text: as §1

[9] = system: MDA-MB-231; assay: Proliferation assay: cell line panel, MDA-MB-231; type: cell-based; conditions: Homo sapiens, 96 h, breast cancer, triple-negative, 4 days, read-out: Result Category, IC50 (mean)
Source text: as §1

[10] = system: MDA-MB-468; assay: Proliferation assay: cell line panel, MDA-MB-468; type: cell-based; conditions: Homo sapiens, 96 h, breast cancer, triple-negative, 4 days, read-out: Result Category, IC50 (mean)
Source text: as §1

[11] = system: HUH-7; assay: Proliferation assay: cell line panel, HUH-7; type: cell-based; conditions: Homo sapiens, 96 h, liver cancer, 4 days, read-out: Result Category, IC50 (mean)
Source text: as §1

[12] = system: JHH-7; assay: Proliferation assay: cell line panel, JHH-7; type: cell-based; conditions: Homo sapiens, JHH7, 96 h, liver cancer, 4 days, read-out: Result Category, IC50 (mean)
Source text: as §1

[13] = system: NCI-H1299; assay: Proliferation assay: cell line panel, NCI-H1299; type: cell-based; conditions: Homo sapiens, 96 h, lung cancer, non-small cell, 4 days, read-out: Result Category, IC50 (mean)
Source text: as §1

[14] = system: HT-144; assay: Proliferation assay: cell line panel, HT-144; type: cell-based; conditions: Homo sapiens, 96 h, melanoma, 4 days, read-out: Result Category, IC50 (mean)
Source text: as §1

[15] = system: COV318; assay: Proliferation assay: cell line panel, COV318; type: cell-based; conditions: Homo sapiens, 96 h, ovarian cancer, 4 days, read-out: Result Category, IC50 (mean)
Source text: as §1

Compound: COc1ccc(-c2nnc(CNc3nc(N4CCOCC4)nn4c(C(F)(F)F)cnc34)[nH]2)cn1 [Example 18, N-{[5-(6-methoxypyridin-3-yl)-4H-1,2,4-triazol-3-yl]methyl}-2-(morpholin-4-yl)-7-(trifluoromethyl)imidazo[2,1-f][1,2,4]triazin-4-amine]
IC50 [1]: 252 nM
Ratio (Prolif-CAL-120-CDK12d-res IC50 / Prolif-CAL-120 IC50) [1]: 2.4

IC50 [3]: 30 to 100 nM
IC50 [5]: 30 to 100 nM
IC50 [7]: ≥ 100 nM
IC50 [8]: ≥ 100 nM
IC50 [9]: 30 to 100 nM
IC50 [10]: 30 to 100 nM
IC50 [11]: 30 to 100 nM
IC50 [13]: ≥ 100 nM
IC50 [14]: 30 to 100 nM
Compound: FC(F)(F)c1ccc(-c2cnc(CNc3nc(N4CCOCC4)nn4c(C(F)(F)F)cnc34)[nH]2)cc1 [Example 7, 2-(morpholin-4-yl)-7-(trifluoromethyl)-N-({5-[4-(trifluoromethyl)phenyl]-1H-imidazol-2-yl}methyl)imidazo[2,1-f][1,2,4]triazin-4-amine]
IC50 [1]: 112 nM
Ratio (Prolif-CAL-120-CDK12d-res IC50 / Prolif-CAL-120 IC50) [1]: 1.1
IC50 [2]: 30 to 100 nM
IC50 [4]: ≥ 100 nM
IC50 [6]: ≥ 100 nM
IC50 [12]: ≥ 100 nM
IC50 [15]: ≥ 100 nM

IC50 [3]: 30 to 100 nM
IC50 [5]: 30 to 100 nM
IC50 [7]: ≥ 100 nM
IC50 [8]: 30 to 100 nM
IC50 [9]: ≥ 100 nM
IC50 [10]: 30 to 100 nM
IC50 [11]: 30 to 100 nM
IC50 [13]: ≥ 100 nM
IC50 [14]: 30 to 100 nM
Compound: FC(F)(F)Oc1ccc(-c2cnc(CNc3nc(N4CCOCC4)nn4c(C(F)(F)F)cnc34)[nH]2)cc1 [Example 8, 2-(morpholin-4-yl)-N-({5-[4-(trifluoromethoxy)phenyl]-1H-imidazol-2-yl}methyl)-7-(trifluoromethyl)imidazo[2,1-f][1,2,4]triazin-4-amine]
IC50 [1]: 173 nM
Ratio (Prolif-CAL-120-CDK12d-res IC50 / Prolif-CAL-120 IC50) [1]: 1.9
IC50 [2]: ≤ 30 nM
IC50 [4]: ≥ 100 nM
IC50 [6]: 30 to 100 nM
IC50 [12]: 30 to 100 nM
IC50 [15]: ≥ 100 nM

Compound: FC(F)(F)c1ccc(-c2cnc(CNc3nc(N4CCOCC4)nn4c(C(F)(F)F)cnc34)[nH]2)cn1 [Example 12, 2-(morpholin-4-yl)-7-(trifluoromethyl)-N-({5-[6-(trifluoromethyl)pyridin-3-yl]-1H-imidazol-2-yl}methyl)imidazo[2,1-f][1,2,4]triazin-4-amine]
IC50 [1]: 22.1 nM
Ratio (Prolif-CAL-120-CDK12d-res IC50 / Prolif-CAL-120 IC50) [1]: 1.5

Compound: FC(F)(F)Oc1ccc(-c2cnc(CNc3nc(N4CCOCC4)nc4c(C(F)(F)F)cnn34)[nH]2)cc1 [Example 10, 2-(morpholin-4-yl)-N-({5-[4-(trifluoromethoxy)phenyl]-1H-imidazol-2-yl}methyl)-8-(trifluoromethyl)pyrazolo[1,5-a][1,3,5]triazin-4-amine]
IC50 [1]: 139 nM
Ratio (Prolif-CAL-120-CDK12d-res IC50 / Prolif-CAL-120 IC50) [1]: 2.0

Compound: FC(F)(F)c1ccc(-c2cnc(CNc3nc(N4CCOCC4)nc4c(C(F)(F)F)cnn34)[nH]2)cn1 [Example 24, 2-(morpholin-4-yl)-8-(trifluoromethyl)-N-({5-[6-(trifluoromethyl)pyridin-3-yl]-1H-imidazol-2-yl}methyl)pyrazolo[1,5-a][1,3,5]triazin-4-amine]
IC50 [1]: 40.7 nM
Ratio (Prolif-CAL-120-CDK12d-res IC50 / Prolif-CAL-120 IC50) [1]: 1.3

Compound: FC(F)(F)c1ccc(-c2cnc(CNc3nc(N4CCOCC4)nc4c(C(F)(F)F)cnn34)[nH]2)cc1 [Example 9, 2-(morpholin-4-yl)-8-(trifluoromethyl)-N-({5-[4-(trifluoromethyl)phenyl]-1H-imidazol-2-yl}methyl)pyrazolo[1,5-a][1,3,5]triazin-4-amine]
IC50 [1]: 105 nM
Ratio (Prolif-CAL-120-CDK12d-res IC50 / Prolif-CAL-120 IC50) [1]: 1.0

Compound: FC(F)(F)c1ccc(-c2nnc(CNc3nc(N4CCOCC4)nn4c(C(F)(F)F)cnc34)[nH]2)cn1 [Example 20, 2-(morpholin-4-yl)-7-(trifluoromethyl)-N-({5-[6-(trifluoromethyl)pyridin-3-yl]-4H-1,2,4-triazol-3-yl}methyl)imidazo[2,1-f][1,2,4]triazin-4-amine]
IC50 [1]: 118 nM
Ratio (Prolif-CAL-120-CDK12d-res IC50 / Prolif-CAL-120 IC50) [1]: 1.4

Compound: FC(F)(F)Oc1ccc(-c2nnc(CNc3nc(N4CCOCC4)nn4c(C(F)(F)F)cnc34)[nH]2)cn1 [Example 19, 2-(morpholin-4-yl)-N-({5-[6-(trifluoromethoxy)pyridin-3-yl]-4H-1,2,4-triazol-3-yl}methyl)-7-(trifluoromethyl)imidazo[2,1-f][1,2,4]triazin-4-amine]
IC50 [1]: 97.1 nM
Ratio (Prolif-CAL-120-CDK12d-res IC50 / Prolif-CAL-120 IC50) [1]: 1.5
